The values that follow come from patent US11173156B2, “Solid forms of a kynurenine-3-monooxygenase inhibitor” (CHDI Foundation, Inc., priority 2019, dated 2021).

SMILES strings stand for the structures. Read-outs that look alike come from different tables or passages of the source. Some results are limits rather than exact numbers.

Holding throughout (type): physicochemical
Series [1] in a line: Approximate aqueous solubility of salts/co-crystals (visual, solvent addition method). As to conditions: water; for solubility: estimated visually, solvent addition method. The method, then:
A weighed sample was treated with aliquots of the test solvent at room temperature. The mixture was sonicated between additions to facilitate dissolution. Complete dissolution of the test material was determined by visual inspection. Solubility was estimated based on the total solvent used to provide complete dissolution. Some samples were then heated and observed visually for complete dissolution. The actual solubility may be greater than the value calculated because of the use of solvent aliquots that were too large or due to a slow rate of dissolution. […] If complete dissolution was achieved as a result of only one aliquot addition, the solubility is expressed as “greater than.”

Series [2] in a line: Deliquescence of salts/co-crystals during exposure to 75% RH. As to conditions: ambient temperature, 3 day exposure, visual. Here is the method:
The salts identified from the salt/co-crystal screen of Compound I (see section 4 above) were assessed visually for deliquescence during exposure to 75% RH at ambient temperature (Table 5). […] The materials from these experiments were recovered and re-analyzed by XRPD to determine if changes in solid form occurred.

Series [3] is described as follows: Dynamic vapor sorption/desorption (DVS). The following applies: for material recovered from the DVS analysis compared with starting material by XRPD: after DVS; for DVS weight loss: from about 95% to about 5% RH. The method, then:
Moisture sorption/desorption data were collected on a VTI SGA-100 Vapor Sorption Analyzer. NaCl and PVP were used as calibration standards. Samples were not dried prior to analysis. Sorption and desorption data were collected over a range from 5% to 95% RH at 10% RH increments under a nitrogen purge. The equilibrium criterion used for analysis was less than 0.0100% weight change in 5 minutes with a maximum equilibration time of 3 hours. Data were not corrected for the initial moisture content of the samples.

A short description of series [4]: Slurry experiments (form stability). The method, then:
Solutions were prepared by adding enough solids to a given solvent so that excess solids were present. The mixture was then agitated in a sealed vial at either ambient or an elevated temperature. After a given amount of time, the solids were isolated for analysis.
The formation and stability of solid forms of the sodium salt of Compound I was further evaluated via slurry experiments. The slurries were formed by combining Compound I sodium Pattern A and a solvent, and allowing the slurry to equilibrate at room temperature. If a free flowing slurry was not achieved, an additional amount of the respective solvent was added before the room temperature equilibration step. All slurries were isolated via centrifuge filtration after five days and twelve days of equilibration. The solids were analyzed by XRPD to check for pattern conversion (Table 13).

Series [5] is described as follows: Stability at elevated temperatures (XRPD, HPLC). Here is the method:
The stability of Compound I sodium Patterns A, C, and D and Form B, at about 60° C. was evaluated. These forms were weighed into vials covered with a Kimwipe tissue and stored in an oven at 60° C. and ambient pressure. After three days and ten days of exposure, the solids were analyzed by XRPD to check for form conversion. […].

On to `O=C(O)c1cc(-c2ccc(OC3CC3)c(Cl)c2)ncn1` (racemic) [Compound I arginine Material A, 6-(3-chloro-4-cyclopropoxyphenyl)pyrimidine-4-carboxylic acid], for which, in series [1] (listed as Compound I Arginine Material A), the “aqueous solubility (in words)” value was “suitable aqueous solubility”.
Usually solubility stands for the dissolved amount per volume that the medium holds. `O=C(O)c1cc(-c2ccc(OC3CC3)c(Cl)c2)ncn1` (racemic) [Compound I lysine Material A, 6-(3-chloro-4-cyclopropoxyphenyl)pyrimidine-4-carboxylic acid]: in series [1] (thermodynamic from solid, read-out: Solubility), the solubility is less than 4 mg/mL. Further, the “aqueous solubility (in words)” value in series [1] (listed as Compound I lysine material A) is “poor low aqueous solubility”. Further, in series [2], the “Observation (deliquescence)” value is given as “no deliquescence”.
In the case of `O=C(O)c1cc(-c2ccc(OC3CC3)c(Cl)c2)ncn1` [Compound I diethanolamine Form A, 6-(3-chloro-4-cyclopropoxyphenyl)pyrimidine-4-carboxylic acid], in series [1], the “aqueous solubility (in words)” value was “desirable aqueous solubility” and the solubility entry is “above 260 mg/mL”. For the same compound, in series [2], the “Observation (deliquescence)” value is recorded as “no deliquescence”. Further, in series [3], the “hygroscopicity by DVS analysis (in words)” value (“hygroscopicity” below) is given as “not hygroscopic”, the “DVS weight loss upon equilibration at about 5% RH” value is recorded as “about 0.2%”, the “material recovered from the DVS analysis compared with starting material by XRPD” value is on record as “substantially the same as the starting material” and the DVS weight loss was approximately 0.47%. The compound also yielded a DVS weight gain in series [3] (from about 5 to about 95% RH) of approximately 0.48%.
`O=C(O)c1cc(-c2ccc(OC3CC3)c(Cl)c2)ncn1` [Compound I diethylamine Material A, 6-(3-chloro-4-cyclopropoxyphenyl)pyrimidine-4-carboxylic acid]: in series [1], the “aqueous solubility (in words)” value was “desirable aqueous solubility” and the solubility is recorded as approximately 30 mg/mL. In addition, in series [1] (listed as Diethylamine A), the solubility is reported as more than 30 mg/mL. Further, the “Observation (deliquescence)” value in series [2] is recorded as “no deliquescence”. For the same compound, in series [3], the “hygroscopicity” value is reported as “hygroscopic”, the “DVS weight loss upon equilibration at about 5% RH” value is given as “about 0.08%”, the “material recovered from the DVS analysis compared with starting material by XRPD” value is reported as “substantially the same as the starting material” and the DVS weight loss is listed as approximately 1.92%. The compound further came in with a DVS weight gain in series [3] (from about 5 to about 95% RH) of approximately 2.12%. In addition, the “gain observed by DVS analysis” value in series [3] (sorption cycle) was approximately 2 wt %.
On to `O=C(O)c1cc(-c2ccc(OC3CC3)c(Cl)c2)ncn1` [Compound I ethanolamine Material A, 6-(3-chloro-4-cyclopropoxyphenyl)pyrimidine-4-carboxylic acid], for which the “aqueous solubility (in words)” value in series [1] is “poor low aqueous solubility”. Also, the solubility in series [1] (listed as Ethanolamine A) is on record as less than 4 mg/mL. In addition, the “Observation (deliquescence)” value in series [2] was “no deliquescence”.
Regarding `O=C(O)c1cc(-c2ccc(OC3CC3)c(Cl)c2)ncn1` [Compound I meglumine Material A, 6-(3-chloro-4-cyclopropoxyphenyl)pyrimidine-4-carboxylic acid], the “aqueous solubility (in words)” value in series [1] was “suitable aqueous solubility”.
On to `O=C(O)c1cc(-c2ccc(OC3CC3)c(Cl)c2)ncn1` [Compound I sodium Pattern C, 6-(3-chloro-4-cyclopropoxyphenyl)pyrimidine-4-carboxylic acid], for which, in series [3], the “hygroscopicity” value is given as “slightly hygroscopic”. The “material recovered from the DVS analysis compared with starting material by XRPD” value in series [3] is “substantially the same as the starting material”. Moreover, the DVS weight gain entry is “about 1.9%” in series [3] (at 60% RH) and “about 8.4%” in series [3] (at 90% RH). The “form conversion in slurry / trituration” value in series [4] (acetone and/or isopropanol (trituration, single form or competitive slurry)) is recorded as “converted to Compound I sodium Form B”; in series [4] (solvent systems with high water activity), “covert to Compound I sodium Form E”. Further, in series [4] (at the conditions evaluated), the “relative stability of the form (in words)” value was “not stable”. The “time stable in slurry” value in series [4] (methanol) was “about 10 days”. In series [5] (about 60° C.), the “chemical and physical form changes after storing at elevated temperature” value is “No chemical and physical form changes were observed”. The compound further came in with an HPLC in series [5] (after storage at 60 ° C. (time point not given)) of more than 99.9 % AUC.
Regarding `O=C(O)c1cc(-c2ccc(OC3CC3)c(Cl)c2)ncn1` [Compound I tromethamine Form A, 6-(3-chloro-4-cyclopropoxyphenyl)pyrimidine-4-carboxylic acid], in series [1], the “aqueous solubility (in words)” value is “desirable aqueous solubility” and the solubility is listed as approximately 134 mg/mL. The solubility in series [1] (listed as Tromethamine A) is more than 134 mg/mL. Moreover, in series [2], the “Observation (deliquescence)” value is on record as “no deliquescence”. In series [3], the “hygroscopicity” value was “not hygroscopic”, the “DVS weight loss upon equilibration at about 5% RH” value was “about 0.01%”, the “material recovered from the DVS analysis compared with starting material by XRPD” value was “substantially the same as the starting material” and the DVS weight loss is given as approximately 0.26%. In series [3] (from about 5 to about 95% RH), this compound displayed a DVS weight gain of approximately 0.25%.
